Consider 2 compounds from publication PMC3487895, “Artepillin C, a Major Ingredient of Brazilian Propolis, Induces a Pungent Taste by Activating TRPA1 Channels” (PLoS ONE, 2012).

In test [1] the target is T1, human transient receptor potential ankyrin 1 (hTRPA1) (Homo sapiens, UniProt O75762).
T1 construct: gene TRPA1; entire coding region (NM_007332.2)
As to the kind of experiment: calcium influx (FLIPR Calcium […] plate reader and Fura-2 imaging) in hTRPA1-expressing Flp-In […] cells; blocked by HC-030031. The format is cell-based.

Test [2] deals with T1, human transient receptor potential ankyrin 1 (hTRPA1). As to the kind of experiment: calcium influx (FLIPR Calcium […] plate reader and Fura-2 imaging) in hTRPA1-expressing Flp-In […] cells; blocked by HC-030031, absent in parental cells. The format is cell-based.

T1 sequence (O75762 whole entry): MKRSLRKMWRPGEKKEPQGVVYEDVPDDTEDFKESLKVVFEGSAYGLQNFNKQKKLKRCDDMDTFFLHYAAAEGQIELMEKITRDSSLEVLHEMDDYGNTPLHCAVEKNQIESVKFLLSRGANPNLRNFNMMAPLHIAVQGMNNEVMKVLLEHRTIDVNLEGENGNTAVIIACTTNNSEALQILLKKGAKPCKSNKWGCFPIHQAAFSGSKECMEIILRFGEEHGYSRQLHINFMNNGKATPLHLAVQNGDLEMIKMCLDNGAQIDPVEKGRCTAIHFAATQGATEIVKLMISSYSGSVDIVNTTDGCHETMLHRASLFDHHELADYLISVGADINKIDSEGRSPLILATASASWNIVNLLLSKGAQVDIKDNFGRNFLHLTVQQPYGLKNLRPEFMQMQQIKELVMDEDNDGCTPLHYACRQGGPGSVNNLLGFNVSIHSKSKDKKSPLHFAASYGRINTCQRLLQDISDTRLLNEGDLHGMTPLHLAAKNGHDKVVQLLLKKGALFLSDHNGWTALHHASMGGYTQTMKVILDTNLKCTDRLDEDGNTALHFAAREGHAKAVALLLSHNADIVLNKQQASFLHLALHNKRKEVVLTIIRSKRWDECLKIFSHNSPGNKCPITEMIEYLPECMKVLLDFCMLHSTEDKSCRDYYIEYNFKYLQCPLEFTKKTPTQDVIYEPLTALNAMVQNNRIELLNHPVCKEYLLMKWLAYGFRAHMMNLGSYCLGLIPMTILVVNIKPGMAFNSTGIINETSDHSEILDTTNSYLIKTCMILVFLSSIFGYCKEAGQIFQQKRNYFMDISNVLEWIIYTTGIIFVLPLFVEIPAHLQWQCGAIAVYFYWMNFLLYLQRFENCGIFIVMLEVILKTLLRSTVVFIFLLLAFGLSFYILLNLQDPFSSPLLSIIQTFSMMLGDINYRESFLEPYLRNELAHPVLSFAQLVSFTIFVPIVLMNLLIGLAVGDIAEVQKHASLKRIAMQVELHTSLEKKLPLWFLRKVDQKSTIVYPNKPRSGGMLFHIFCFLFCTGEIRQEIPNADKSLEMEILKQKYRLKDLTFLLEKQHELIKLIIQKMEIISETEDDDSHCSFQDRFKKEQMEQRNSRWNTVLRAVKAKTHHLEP

In the case of `CC(C)=CCc1cc(/C=C/C(=O)O)ccc1OC(=O)CCc1ccccc1` [baccharin, (E)-3-prenyl-4-(2,3-dihydrocinnamoyloxy) cinnamic acid], in test [1], the EC50 (commonly the concentration needed to bring the measured effect to its halfway point) turned out to be 15.5 µM.
Regarding `CC(C)=CCc1cc(/C=C/C(=O)O)cc(CC=C(C)C)c1O` [artepillin C, 3,5-diprenyl-4-hydroxycinnamic acid], in test [2], the EC50 turned out to be 1.8 µM.
